Measured values reported in ChEMBL document CHEMBL3045480, “Goat brain enkephalin degrading enzyme: interaction with analgesic and antihypertensive drugs” (Med Chem Res, 2011).

Target: T1, Dipeptidyl peptidase 3 (Bos mutus) (UniProt L8I2E6)
T1 sequence (whole entry): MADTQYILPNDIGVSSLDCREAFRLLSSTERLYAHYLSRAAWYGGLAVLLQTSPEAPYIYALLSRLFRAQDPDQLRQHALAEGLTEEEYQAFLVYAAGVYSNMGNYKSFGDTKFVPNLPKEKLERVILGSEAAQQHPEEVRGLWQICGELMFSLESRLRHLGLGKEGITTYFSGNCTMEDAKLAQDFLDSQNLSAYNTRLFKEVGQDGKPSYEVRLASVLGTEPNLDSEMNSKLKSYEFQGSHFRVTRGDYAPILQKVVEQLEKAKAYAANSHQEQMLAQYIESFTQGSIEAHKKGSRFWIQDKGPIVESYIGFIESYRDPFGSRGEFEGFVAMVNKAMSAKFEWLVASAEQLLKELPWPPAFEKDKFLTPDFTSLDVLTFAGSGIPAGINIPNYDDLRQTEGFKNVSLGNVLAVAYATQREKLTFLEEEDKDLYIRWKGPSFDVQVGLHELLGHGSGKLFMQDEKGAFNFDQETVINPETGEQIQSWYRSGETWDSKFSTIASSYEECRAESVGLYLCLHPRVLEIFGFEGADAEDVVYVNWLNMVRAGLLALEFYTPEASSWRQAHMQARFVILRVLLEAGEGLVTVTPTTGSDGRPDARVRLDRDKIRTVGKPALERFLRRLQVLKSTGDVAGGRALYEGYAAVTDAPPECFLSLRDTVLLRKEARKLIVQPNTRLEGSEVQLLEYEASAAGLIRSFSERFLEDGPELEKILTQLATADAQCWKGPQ
Assay: Inhibition of Capra hircus (goat) brain DPP-3 using Arg-Arg-4mbetaNA as substrate assessed as liberation of 4mbetaNA from substrate
Conditions: target entry is the homologue from another species

inhibition | SMILES
71% | CS(=O)(=O)c1ccc(C2=C(c3ccccc3)C(=O)OC2)cc1
96% | CC(=O)Nc1ccc(O)cc1
85% | O=C(O)Cc1ccccc1Nc1c(Cl)cccc1Cl
